Laboratory results taken from the NIST ThermoML archive (doi:10.1016/j.tca.2006.05.016).
± gives the expanded uncertainty stated by the source.

Experiments:
[1] = Crystal 2; Adiabatic calorimetry
[2] = Molar enthalpy of transition or fusion; conditions: Crystal 2; Adiabatic calorimetry
[3] = molar heat capacity at constant pressure; conditions: 101.33 kPa, Vacuum adiabatic calorimetry

O.O=C([O-])[C@H](O)[C@@H](O)CO.[Na+] [sodium (2R,3S)-2,3,4-trihydroxybutanoate hydrate]
Conditions | Molar enthalpy of transition or fusion [kcal/mol] | Triple point temperature [K]
[1] | – | 311.4 ± 0.4
[2] | 1.37 ± 0.0143 | –

[3]
Conditions | molar heat capacity at constant pressure [J/K/mol]
77.95 K, Crystal 2 | 75 ± 0.26
79.37 K, Crystal 2 | 76.72 ± 0.27
81.36 K, Crystal 2 | 79.56 ± 0.28
83.91 K, Crystal 2 | 84.79 ± 0.3
86.36 K, Crystal 2 | 87.68 ± 0.3
88.76 K, Crystal 2 | 90.45 ± 0.31
91.09 K, Crystal 2 | 93.27 ± 0.35
93.36 K, Crystal 2 | 96.08 ± 0.36
95.59 K, Crystal 2 | 98.2 ± 0.36
97.78 K, Crystal 2 | 100.57 ± 0.37
99.92 K, Crystal 2 | 102.71 ± 0.38
102.04 K, Crystal 2 | 105.14 ± 0.38
104.12 K, Crystal 2 | 107.69 ± 0.39
106.16 K, Crystal 2 | 109.95 ± 0.4
108.18 K, Crystal 2 | 111.9 ± 0.4
110.17 K, Crystal 2 | 113.31 ± 0.41
112.13 K, Crystal 2 | 114.95 ± 0.41
114.07 K, Crystal 2 | 116.19 ± 0.41
115.97 K, Crystal 2 | 117.54 ± 0.42
117.86 K, Crystal 2 | 118.71 ± 0.42
119.77 K, Crystal 2 | 120.32 ± 0.43
121.62 K, Crystal 2 | 121.99 ± 0.43
123.51 K, Crystal 2 | 123.24 ± 0.43
125.33 K, Crystal 2 | 124.71 ± 0.44
127.14 K, Crystal 2 | 125.29 ± 0.44
128.86 K, Crystal 2 | 126.35 ± 0.44
130.68 K, Crystal 2 | 127.87 ± 0.45
132.5 K, Crystal 2 | 128.63 ± 0.45
134.24 K, Crystal 2 | 131.67 ± 0.46
135.97 K, Crystal 2 | 132.68 ± 0.46
137.73 K, Crystal 2 | 133.19 ± 0.46
139.48 K, Crystal 2 | 134.44 ± 0.47
141.23 K, Crystal 2 | 136.19 ± 0.47
142.86 K, Crystal 2 | 137.59 ± 0.48
144.61 K, Crystal 2 | 138.32 ± 0.48
146.3 K, Crystal 2 | 140.73 ± 0.49
147.99 K, Crystal 2 | 140.29 ± 0.48
149.61 K, Crystal 2 | 141.98 ± 0.49
151.3 K, Crystal 2 | 143.95 ± 0.5
152.96 K, Crystal 2 | 145.69 ± 0.5
154.61 K, Crystal 2 | 147.47 ± 0.51
156.3 K, Crystal 2 | 148.86 ± 0.51
157.86 K, Crystal 2 | 150.83 ± 0.52
159.54 K, Crystal 2 | 152.22 ± 0.52
161.17 K, Crystal 2 | 153.62 ± 0.52
162.73 K, Crystal 2 | 154.86 ± 0.53
164.35 K, Crystal 2 | 156.25 ± 0.53
165.91 K, Crystal 2 | 156.39 ± 0.53
167.53 K, Crystal 2 | 158.29 ± 0.54
169.09 K, Crystal 2 | 159.91 ± 0.54
172.12 K, Crystal 2 | 160.63 ± 0.55
176.29 K, Crystal 2 | 162.82 ± 0.55
180.3 K, Crystal 2 | 165.02 ± 0.56
184.22 K, Crystal 2 | 166.35 ± 0.56
188.18 K, Crystal 2 | 168.27 ± 0.57
191.97 K, Crystal 2 | 170.46 ± 0.57
195.83 K, Crystal 2 | 171.25 ± 0.58
199.61 K, Crystal 2 | 172.21 ± 0.58
203.33 K, Crystal 2 | 173.89 ± 0.58
207.04 K, Crystal 2 | 175.99 ± 0.59
210.68 K, Crystal 2 | 177.22 ± 0.59
214.32 K, Crystal 2 | 179.68 ± 0.6
217.96 K, Crystal 2 | 181.35 ± 0.61
221.51 K, Crystal 2 | 183.72 ± 0.61
225 K, Crystal 2 | 185.96 ± 0.62
228.51 K, Crystal 2 | 187.72 ± 0.63
231.95 K, Crystal 2 | 189.41 ± 0.63
235.39 K, Crystal 2 | 192.26 ± 0.64
238.79 K, Crystal 2 | 194.53 ± 0.65
242.04 K, Crystal 2 | 198.57 ± 0.66
245.39 K, Crystal 2 | 201.48 ± 0.67
248.7 K, Crystal 2 | 203.61 ± 0.67
252.08 K, Crystal 2 | 206.16 ± 0.68
255.46 K, Crystal 2 | 208.87 ± 0.69
258.7 K, Crystal 2 | 210.99 ± 0.7
262.01 K, Crystal 2 | 212.53 ± 0.7
265.32 K, Crystal 2 | 215.68 ± 0.71
268.57 K, Crystal 2 | 217.65 ± 0.72
271.77 K, Crystal 2 | 220.53 ± 0.73
275 K, Crystal 2 | 224.17 ± 0.74
278.12 K, Crystal 2 | 228.04 ± 0.75
281.3 K, Crystal 2 | 231.99 ± 0.76
284.42 K, Crystal 2 | 237.12 ± 0.78
287.53 K, Crystal 2 | 241.14 ± 0.79
290.52 K, Crystal 2 | 246.12 ± 0.8
293.51 K, Crystal 2 | 256.15 ± 260
296.36 K, Crystal 2 | 269.06 ± 270
299.17 K, Crystal 2 | 287.71 ± 290
301.89 K, Crystal 2 | 317.39 ± 320
304.46 K, Crystal 2 | 360.73 ± 360
306.87 K, Crystal 2 | 401.98 ± 400
309.17 K, Crystal 2 | 438.39 ± 440
311.36 K, Crystal 2 | 491.36 ± 490
318.51 K, Crystal 1 | 314.18 ± 1
320.91 K, Crystal 1 | 318.35 ± 1
323.31 K, Crystal 1 | 325.56 ± 1.1
325.78 K, Crystal 1 | 328.61 ± 1.1
328.18 K, Crystal 1 | 335.06 ± 1.1
330.58 K, Crystal 1 | 339.72 ± 1.1
332.99 K, Crystal 1 | 345.04 ± 1.1
335.32 K, Crystal 1 | 351.32 ± 1.1
337.66 K, Crystal 1 | 358.41 ± 1.1
340.01 K, Crystal 1 | 364.19 ± 1.2
342.27 K, Crystal 1 | 369.83 ± 1.2
344.55 K, Crystal 1 | 376.43 ± 1.2
346.82 K, Crystal 1 | 381.43 ± 1.2
349.03 K, Crystal 1 | 386.89 ± 1.2
351.17 K, Crystal 1 | 394.15 ± 1.3
353.25 K, Crystal 1 | 400.12 ± 1.3
355.33 K, Crystal 1 | 406.54 ± 1.3
357.27 K, Crystal 1 | 412.66 ± 1.3
359.16 K, Crystal 1 | 419.26 ± 1.3
360.91 K, Crystal 1 | 423.77 ± 1.4
362.53 K, Crystal 1 | 426.99 ± 1.4
364.09 K, Crystal 1 | 434.07 ± 1.4
365.32 K, Crystal 1 | 439.39 ± 1.4
366.56 K, Crystal 1 | 441.96 ± 1.4
367.66 K, Crystal 1 | 446.63 ± 1.4
368.51 K, Crystal 1 | 453.39 ± 1.5
